Assay results from ChEMBL document CHEMBL1909046, “DrugMatrix in vitro pharmacology data”.

Legend:
[1] = target: T1, 3-hydroxy-3-methylglutaryl-coenzyme A reductase (Homo sapiens, UniProt P04035); parameters: species or system Escherichia coli;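 further: enzyme inhibition assay of HMG-CoA reductase using radiolabeled [14C]HMG-CoA as substrate; in other assays of this panel Not Active means under 50% inhibition at 10 µM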
T1 sequence (P04035 whole entry): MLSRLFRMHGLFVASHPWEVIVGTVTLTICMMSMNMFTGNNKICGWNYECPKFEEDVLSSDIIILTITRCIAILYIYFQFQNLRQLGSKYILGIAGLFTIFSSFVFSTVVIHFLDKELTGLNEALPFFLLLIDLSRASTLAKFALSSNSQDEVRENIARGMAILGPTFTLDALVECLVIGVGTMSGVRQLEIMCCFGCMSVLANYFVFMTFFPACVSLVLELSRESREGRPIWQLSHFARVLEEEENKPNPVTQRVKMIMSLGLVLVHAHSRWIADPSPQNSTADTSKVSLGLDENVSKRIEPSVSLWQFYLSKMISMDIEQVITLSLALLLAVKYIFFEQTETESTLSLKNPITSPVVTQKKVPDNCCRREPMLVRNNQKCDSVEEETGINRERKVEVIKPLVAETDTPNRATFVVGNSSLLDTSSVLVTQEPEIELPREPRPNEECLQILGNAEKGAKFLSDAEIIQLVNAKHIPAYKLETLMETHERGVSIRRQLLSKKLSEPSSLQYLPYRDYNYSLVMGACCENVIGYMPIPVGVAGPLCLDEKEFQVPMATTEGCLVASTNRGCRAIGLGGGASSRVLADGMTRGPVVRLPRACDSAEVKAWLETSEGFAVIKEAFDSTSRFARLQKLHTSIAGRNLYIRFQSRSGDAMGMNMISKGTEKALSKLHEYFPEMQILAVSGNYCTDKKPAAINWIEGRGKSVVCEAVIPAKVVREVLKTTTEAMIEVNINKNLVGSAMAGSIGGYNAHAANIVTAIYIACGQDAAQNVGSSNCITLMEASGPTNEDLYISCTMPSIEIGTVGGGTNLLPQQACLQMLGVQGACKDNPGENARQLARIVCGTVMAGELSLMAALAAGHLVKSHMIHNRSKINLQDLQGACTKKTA

[2] = target: cGMP-specific 3',5'-cyclic phosphodiesterase (Homo sapiens, UniProt O76074); experiment: DRUGMATRIX: Phosphodiesterase PDE5 enzyme inhibition (substrate: [3H]cGMP + cGMP); format: tissue-based, Platelet; conditions: platelet; Not Active = under 50% inhibition at 10 µM
[3] = DRUGMATRIX: GABAA, Chloride Channel, TBOB radioligand binding (ligand: [3H] TBOB); format: cell membranes, Rattus norvegicus, Wistar, Cerebral cortex, Membrane; conditions: Not Active = under 50% inhibition at 10 µM
[4] = DRUGMATRIX: Interleukin IL-1 radioligand binding (ligand: [125I] interleukin 1beta); format: cell membranes, Membrane; conditions: nih3t3; Not Active = under 50% inhibition at 10 µM
[5] = target: T2, Alpha-1D adrenergic receptor (Homo sapiens, UniProt P25100); format: cell membranes, HEK293, Membrane; conditions: for Ki: read-out: Ki; on all read-outs here: in other assays of this panel Not Active means under 50% inhibition at 10 µM
T2 sequence (P25100 whole entry): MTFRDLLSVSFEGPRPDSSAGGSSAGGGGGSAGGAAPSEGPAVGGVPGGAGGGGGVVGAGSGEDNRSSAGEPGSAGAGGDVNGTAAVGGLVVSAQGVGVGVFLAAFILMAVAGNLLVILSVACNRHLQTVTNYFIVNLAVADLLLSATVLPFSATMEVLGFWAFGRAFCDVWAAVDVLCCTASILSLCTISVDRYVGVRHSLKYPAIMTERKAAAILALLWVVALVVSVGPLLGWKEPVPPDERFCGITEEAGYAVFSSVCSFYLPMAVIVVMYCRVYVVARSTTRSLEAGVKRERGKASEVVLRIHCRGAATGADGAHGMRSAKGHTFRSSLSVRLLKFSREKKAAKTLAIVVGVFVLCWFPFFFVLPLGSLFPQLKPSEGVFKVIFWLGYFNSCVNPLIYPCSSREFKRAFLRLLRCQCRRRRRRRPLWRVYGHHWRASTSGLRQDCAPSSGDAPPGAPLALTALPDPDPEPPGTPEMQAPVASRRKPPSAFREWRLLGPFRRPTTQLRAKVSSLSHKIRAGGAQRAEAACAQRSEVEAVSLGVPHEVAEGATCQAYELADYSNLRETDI

[6] = target: Sodium-dependent dopamine transporter (Homo sapiens, UniProt Q01959); experiment: DRUGMATRIX: Dopamine Transporter radioligand binding (ligand: [125I] RTI-55); format: cell membranes, CHO-K1, Membrane; conditions: Not Active = under 50% inhibition at 10 µM; for Ki: read-out: Ki
[7] = DRUGMATRIX: Nicotinic Acetylcholine radioligand binding (ligand: [125I] Epibatidine); format: cell membranes, Membrane; conditions: imr-32; Not Active = under 50% inhibition at 10 µM

Sequence of Sodium-dependent dopamine transporter (Q01959 whole entry): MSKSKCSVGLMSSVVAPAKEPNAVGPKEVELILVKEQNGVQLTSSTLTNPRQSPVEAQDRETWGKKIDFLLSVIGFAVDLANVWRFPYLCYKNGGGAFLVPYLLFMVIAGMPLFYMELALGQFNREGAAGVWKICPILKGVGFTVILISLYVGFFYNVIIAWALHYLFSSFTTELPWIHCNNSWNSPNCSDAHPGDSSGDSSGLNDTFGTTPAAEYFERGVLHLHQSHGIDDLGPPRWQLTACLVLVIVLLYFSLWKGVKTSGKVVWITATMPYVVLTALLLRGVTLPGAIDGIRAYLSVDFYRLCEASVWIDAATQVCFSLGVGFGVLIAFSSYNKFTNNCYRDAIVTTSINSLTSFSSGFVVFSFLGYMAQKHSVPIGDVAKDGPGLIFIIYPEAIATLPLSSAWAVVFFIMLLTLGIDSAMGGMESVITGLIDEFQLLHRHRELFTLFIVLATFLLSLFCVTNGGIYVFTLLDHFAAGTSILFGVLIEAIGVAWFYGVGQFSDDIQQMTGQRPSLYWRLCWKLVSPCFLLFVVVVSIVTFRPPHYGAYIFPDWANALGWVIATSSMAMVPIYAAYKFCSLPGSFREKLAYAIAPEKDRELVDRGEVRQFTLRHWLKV

| SMILES | IC50 [1] | IC50 [2] | IC50 [3] | Ki [3] | IC50 [4] | Ki [4] | IC50 ([5]; read-out: IC50) [nM] | Ki [5] [nM] | IC50 ([6]; read-out: IC50) [nM] | Ki [6] [nM] | IC50 [7] | Ki [7] | IC50 ([5]; hek293) | IC50 ([6]; cho-k1) |
| --- | --- | --- | --- | --- | --- | --- | --- | --- | --- | --- | --- | --- | --- | --- |
| Cc1c(C)c2c(c(C)c1O)CCC(C)(CN1CCN(c3cc(N4CCCC4)nc(N4CCCC4)n3)CC1)O2 (stereo unspecified) | Not Active | Not Active | Not Active | Not Active | Not Active | Not Active | 26700 | 13100 | 13400 | 10600 | Not Active | Not Active | – | – |
| COc1ccc(CCN(C)CCCC(C#N)(c2ccc(OC)c(OC)c2)C(C)C)cc1OC (stereo unspecified) | Not Active | Not Active | Not Active | Not Active | Not Active | Not Active | – | – | – | – | Not Active | Not Active | Not Active | Not Active |
| CC(C)Cc1ccc([C@@H](C)C(=O)O)cc1 [(R)-IBUPROPHEN] | Not Active | Not Active | Not Active | Not Active | Not Active | Not Active | – | – | – | – | Not Active | Not Active | Not Active | Not Active |
| CN(C)CCOC(c1ccccc1)c1ccccc1 [DIPHENHYDRAMINE] | Not Active | Not Active | – | – | – | – | – | – | – | – | – | – | Not Active | Not Active |
| Clc1ccc(COC(Cn2ccnc2)c2ccc(Cl)cc2Cl)cc1 (stereo unspecified) [ECONAZOLE] | Not Active | Not Active | – | – | – | – | 8900 | 4370 | – | – | – | – | – | – |
| CCN(CC)CCOc1ccc(/C(=C(/Cl)c2ccccc2)c2ccccc2)cc1 [ENCLOMIPHENE] | Not Active | Not Active | – | – | – | – | – | – | – | – | – | – | Not Active | – |
| Fc1ccc(C(c2ccc(F)cc2)N2CCN(C/C=C/c3ccccc3)CC2)cc1 [FLUNARIZINE] | Not Active | Not Active | – | – | – | – | 1080 | 533 | 584 | 464 | – | – | – | – |
| CNCCC(Oc1ccc(C(F)(F)F)cc1)c1ccccc1 (stereo unspecified) [FLUOXETINE] | Not Active | Not Active | – | – | – | – | – | – | – | – | – | – | Not Active | Not Active |
| Cc1ccc(NC(=O)c2ccc(CN3CCN(C)CC3)cc2)cc1Nc1nccc(-c2cccnc2)n1 [IMATINIB] | Not Active | Not Active | – | – | – | – | – | – | – | – | – | – | Not Active | Not Active |
| CC(C)Oc1ccc2c(=O)c(-c3ccccc3)coc2c1 [IPRIFLAVONE] | Not Active | Not Active | Not Active | Not Active | Not Active | Not Active | – | – | – | – | Not Active | Not Active | Not Active | Not Active |
| CC(C)NCC(O)c1ccc(O)c(O)c1 (stereo unspecified) [ISOPROTERENOL] | Not Active | Not Active | Not Active | Not Active | Not Active | Not Active | – | – | – | – | Not Active | Not Active | Not Active | Not Active |
| CNC1(c2ccccc2Cl)CCCCC1=O (stereo unspecified) [KETAMINE] | Not Active | Not Active | Not Active | Not Active | Not Active | Not Active | – | – | – | – | Not Active | Not Active | Not Active | Not Active |
| N#Cc1ccc(C(c2ccc(C#N)cc2)n2cncn2)cc1 [LETROZOLE] | Not Active | Not Active | Not Active | Not Active | Not Active | Not Active | – | – | – | – | Not Active | Not Active | Not Active | Not Active |
| CCN1CCC[C@H]1CNC(=O)c1cc(S(N)(=O)=O)ccc1OC [LEVOSULPIRIDE] | Not Active | Not Active | Not Active | Not Active | Not Active | Not Active | – | – | – | – | Not Active | Not Active | Not Active | Not Active |
| CCN(CC)CC(=O)Nc1c(C)cccc1C [LIDOCAINE] | Not Active | Not Active | Not Active | Not Active | Not Active | Not Active | – | – | – | – | Not Active | Not Active | Not Active | Not Active |
| O=C1Nc2ccc(Cl)cc2C(c2ccccc2Cl)=NC1O (stereo unspecified) [LORAZEPAM] | Not Active | Not Active | Not Active | Not Active | Not Active | Not Active | – | – | – | – | Not Active | Not Active | Not Active | Not Active |
| CO[C@@H]1[C@@H](OC)[C@H](C)[C@@](O)(CC(=O)O)O[C@H]1[C@H](C)[C@H]1O[C@@]2(CC[C@@](C)([C@H]3CC[C@@](C)([C@@H]4O[C@@H]([C@H]5O[C@](C)(O)[C@H](C)C[C@@H]5C)C[C@@H]4O[C@@H]4C[C@H](OC)[C@@H](OC)[C@H](C)O4)O3)O2)C[C@H](O)[C@H]1C [MADURAMICIN ACID] | Not Active | Not Active | Not Active | Not Active | Not Active | Not Active | 1130 | 554 | – | – | Not Active | Not Active | – | Not Active |
| COc1c2occc2cc2ccc(=O)oc12 [METHOXSALEN] | Not Active | Not Active | Not Active | Not Active | Not Active | Not Active | – | – | – | – | Not Active | Not Active | Not Active | Not Active |
| C[C@H]1C[C@@H]2[C@H]([C@@H](O)C[C@@]3(C)[C@H]2CC[C@]3(O)C(=O)CO)[C@@]2(C)C=CC(=O)C=C12 [METHYLPREDNISOLONE] | Not Active | Not Active | Not Active | Not Active | Not Active | Not Active | – | – | – | – | Not Active | Not Active | Not Active | Not Active |
| Cc1cccc(C)c1OCC(C)N (stereo unspecified) [MEXILETINE] | Not Active | Not Active | Not Active | Not Active | Not Active | Not Active | – | – | – | – | Not Active | Not Active | Not Active | Not Active |
| Nc1cc(N2CCCCC2)nc(N)[n+]1[O-] [MINOXIDIL] | Not Active | Not Active | Not Active | Not Active | Not Active | Not Active | – | – | – | – | Not Active | Not Active | Not Active | Not Active |
| CO[C@H]1/C=C/O[C@@]2(C)Oc3c(C)c(O)c4c(O)c(c(/C=N/N5CCN(C6CCCC6)CC5)c(O)c4c3C2=O)NC(=O)/C(C)=C\C=C\[C@H](C)[C@H](O)[C@@H](C)[C@@H](O)[C@@H](C)[C@H](OC(C)=O)[C@@H]1C [RIFAPENTINE] | Not Active | Not Active | Not Active | Not Active | Not Active | Not Active | – | – | – | – | Not Active | Not Active | Not Active | Not Active |
| CCCCOc1cc(CC2CNC(=O)N2)ccc1OC (stereo unspecified) [RO-201724] | Not Active | Not Active | Not Active | Not Active | Not Active | Not Active | – | – | – | – | Not Active | Not Active | Not Active | Not Active |
| CN[C@H]1CC[C@@H](c2ccc(Cl)c(Cl)c2)c2ccccc21 [SERTRALINE] | Not Active | Not Active | – | – | – | – | – | – | – | – | – | – | Not Active | – |
